# Test results from PMC5355235, “FLT3 activating mutations display differential sensitivity to multiple tyrosine kinase inhibitors” (Oncotarget, 2017).
# Substitutions are numbered along the chain they refer to.
# Experiments:
# Assay type in all cases: cell-based
# FLT3/ITD = FLT3/ITD autophosphorylation and signaling pathways, Western blot; settings: FLT3/ITD cells, 1 h, concentration-dependent
# Procedure: (§1) Activated FLT3 expression was measured by performing immunoprecipitation, SDS-PAGE and Western blotting as previously described. Specifically, 10^7 cells were washed in medium and treated with inhibitor for 1 h followed by stimulation with 25 ng/ml of FLT3 ligand for 15 minutes where indicated. Cells were washed twice with ice-cold PBS and lysed in 300 µl of NP-40 lysis buffer (150 mM NaCl, 20 mM TrisHCl (pH7.4), 10% glycerol, 1% NP-40, 10 mM EDTA, 100 mM NaF) with 2 mM Na3VO4 and protease inhibitors (Complete Tablets, Roche, Mannheim, Germany) at 4°C for 30 m. Cell lysate was harvested by centrifugation at 13,000 × g for 30 m at 4°C. FLT3 S-18 antibody was incubated with 500 µg lysate overnight at 4°C followed by immunoprecipitation with protein A-agarose beads for 2 h. Beads were washed once in Tris buffered saline with 1% Tween-20 (TBST) and twice in TBS. Samples were boiled in sodium dodecyl sulfate (SDS) sample buffer prior to separating in a 8% SDS-polyacrylamide gel (SDS-PAGE). Proteins were transferred to a polyvinyl diflouride (PVDF) membrane (Millipore, Bedford, MA, USA) and detected by 4G10 phosphotyrosine antibody and anti-FLT3 S-18 antibody. FLT3 was visualized using the Odyssey Infra Red Imaging System from Li-Cor (Lincoln, NE, USA) using AlexaFluor 680 goat anti-mouse and AlexaFluor 800 goat anti-rabbit antibodies. Phosphorylation of the FLT3 downstream signaling mediators, STAT5, AKT and MAP kinase was investigated by loading 50 µg of whole cell lysate and probing with the indicated antibodies. The membrane was washed and incubated in goat anti-rabbit secondary antibody conjugated to horseradish peroxidase followed by enhanced chemiluminescence (ECL). The membrane was subsequently stripped in 200 mM glycine buffer, pH 2.5 with 0.1% Tween-20 and reprobed for STAT5, AKT and MAP kinase expression using the respective antibodies.
# wild-type FLT3 = target: T1, wild-type FLT3 (Homo sapiens, UniProt P36888); assay: Wild-type FLT3 autophosphorylation in FL-stimulated BaF3/WT-FLT3 cells; settings: TKI 1 h, then 25 ng/ml human FLT3 ligand 15 min
# T1 construct: expressed in transfected cells; host or cells: BaF3
# T1 sequence (P36888 27-993): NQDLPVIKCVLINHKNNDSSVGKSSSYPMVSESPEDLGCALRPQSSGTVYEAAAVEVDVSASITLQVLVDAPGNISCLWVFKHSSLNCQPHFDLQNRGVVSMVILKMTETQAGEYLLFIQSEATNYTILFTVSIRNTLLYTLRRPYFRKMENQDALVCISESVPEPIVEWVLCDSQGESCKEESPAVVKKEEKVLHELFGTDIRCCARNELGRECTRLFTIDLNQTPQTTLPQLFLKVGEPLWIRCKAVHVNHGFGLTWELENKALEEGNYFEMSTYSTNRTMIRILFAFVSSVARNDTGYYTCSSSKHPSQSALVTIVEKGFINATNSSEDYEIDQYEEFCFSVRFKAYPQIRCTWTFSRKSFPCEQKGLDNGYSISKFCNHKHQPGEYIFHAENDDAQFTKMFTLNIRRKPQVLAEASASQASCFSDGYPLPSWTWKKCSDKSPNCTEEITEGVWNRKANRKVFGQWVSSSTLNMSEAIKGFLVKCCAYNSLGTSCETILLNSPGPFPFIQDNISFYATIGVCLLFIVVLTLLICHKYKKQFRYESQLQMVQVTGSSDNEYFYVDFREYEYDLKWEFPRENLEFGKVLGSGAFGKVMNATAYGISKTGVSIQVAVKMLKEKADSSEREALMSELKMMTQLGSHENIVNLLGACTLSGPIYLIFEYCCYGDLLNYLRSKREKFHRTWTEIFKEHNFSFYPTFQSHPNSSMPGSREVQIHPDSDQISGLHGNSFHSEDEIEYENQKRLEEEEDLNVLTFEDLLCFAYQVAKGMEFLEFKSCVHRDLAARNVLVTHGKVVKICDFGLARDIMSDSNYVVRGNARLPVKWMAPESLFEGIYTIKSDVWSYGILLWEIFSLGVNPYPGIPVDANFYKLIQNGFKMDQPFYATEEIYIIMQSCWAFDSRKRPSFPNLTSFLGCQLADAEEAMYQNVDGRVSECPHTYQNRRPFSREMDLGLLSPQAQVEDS
# Procedure: Figure 3 Inhibition of wild-type FLT3 signaling pathways by FLT3 TKI BaF3/WT-FLT3 cells were treated with FLT3 TKI at the indicated concentrations for 1 h at 37°C then stimulated with 25ng/ml of human FLT3 ligand for 15 minutes, followed by immunoprecipitation for FLT3, SDS-PAGE and WB for FLT3 and phospho-FLT3 (PFLT3).
# Activated FLT3 expression was measured by performing immunoprecipitation, SDS-PAGE and Western blotting as previously described. […] Specifically, 10^7 cells were washed in medium and treated with inhibitor for 1 h followed by stimulation with 25 ng/ml of FLT3 ligand for 15 minutes where indicated. Cells were washed twice with ice-cold PBS and lysed in 300 µl of NP-40 lysis buffer (150 mM NaCl, 20 mM TrisHCl (pH7.4), 10% glycerol, 1% NP-40, 10 mM EDTA, 100 mM NaF) with 2 mM Na3VO4 and protease inhibitors (Complete Tablets, Roche, Mannheim, Germany) at 4°C for 30 m. Cell lysate was harvested by centrifugation at 13,000 × g for 30 m at 4°C. FLT3 S-18 antibody was incubated with 500 µg lysate overnight at 4°C followed by immunoprecipitation with protein A-agarose beads for 2 h. Beads were washed once in Tris buffered saline with 1% Tween-20 (TBST) and twice in TBS. […] Proteins were transferred to a polyvinyl diflouride (PVDF) membrane (Millipore, Bedford, MA, USA) and detected by 4G10 phosphotyrosine antibody and anti-FLT3 S-18 antibody. […]
# FLT3 D835Y = target: T2, FLT3 D835Y (Homo sapiens, UniProt P36888, D835Y); assay: FLT3 autophosphorylation, immunoprecipitation/Western blot, D835Y; settings: FLT3 D835Y cells, highest concentrations tested, 1 h
# T2 construct: expressed in transfected cells; host or cells: BaF3
# T2 sequence (P36888 27-993 D835Y): T1 sequence (P36888 27-993) with D809Y
# Procedure: as §1, with “Phosphorylation of the FLT3 downstream signaling mediators, STAT5, AKT and MAP kinase was investigated by loading 50 µg of whole cell lysate and probing with the indicated antibodies. The membrane was washed and incubated in goat anti-rabbit secondary antibody conjugated to horseradish peroxidase followed by enhanced chemiluminescence (ECL). The membrane was subsequently stripped in 200 mM glycine buffer, pH 2.5 with 0.1% Tween-20 and reprobed for STAT5, AKT and MAP kinase expression using the respective antibodies.” left out
compound,measurement,setting,value
Cc1cc2ncc(-c3ccccc3)nc2cc1C [AG1295],"Inhibition of FLT3 autophosphorylation and phosphorylation of STAT5, AKT and Map kinase",FLT3/ITD,inhibited FLT3 autophosphorylation
same,IC50,wild-type FLT3,500 nM
same,Inhibition of FLT3 autophosphorylation,FLT3 D835Y,markedly reduced or absent inhibition
